Data on one compound can be found in US20180085374A1, “Use of Morpholino Compounds for the Treatment of Halitosis” (MERIAL INC., priority 2007, published 2018).

Test [1] has as its system Volatile Sulphur Compounds (VSCs). As to the kind of experiment: Levels of VSCs following treatment with delmopinol. Type of test: in vivo.
A further test concerns oral bacteria. The note with it: delmopinol mouthwash; cited from earlier work.

Take `CCCC(CCC)CCCC1COCCN1CCO` (centres unmarked) [delmopinol, 3-(4-propyl-heptyl)-4-(2-hydroxyethyl)morpholine]: in test [1], the “levels of VSCs” value is reported as “decrease”. Moreover, the “numbers or proportions of oral bacteria” value in the test with oral bacteria is “does not significantly affect”.
